Experimental data reported in ChEMBL document CHEMBL1201862, “PubChem BioAssay data set” (2004).
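Method: 48-hour compound exposure of cells in 96-well plates, five concentrations, linear interpolation of endpoints. GI50: concentration for 50% inhibition of growth.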 Activity calls are given as the source filed them. Cut-off read from the data, not from the text of the source: active = GI50 up to about 1.1 µM and inactive = higher.

How the values were obtained:
Assay in all cases: DTP human tumour cell line panel, 48 h
DMS-114 = tested on: DMS-114
SK-MEL-5 = tested on: SK-MEL-5
A549 = tested on: A549
U-251 = tested on: U-251
SNB-75 = tested on: SNB-75
UO-31 = tested on: UO-31
HCC 2998 = tested on: HCC 2998
NCI-H460 = tested on: NCI-H460
SN12C = tested on: SN12C
UACC-257 = tested on: UACC-257
CCRF-CEM = tested on: CCRF-CEM
Malme-3M = tested on: Malme-3M
OVCAR-4 = tested on: OVCAR-4
OVCAR-5 = tested on: OVCAR-5
SF-295 = tested on: SF-295
NCI-H226 = tested on: NCI-H226

| SMILES | GI50 (DMS-114) | GI50 (SK-MEL-5) | GI50 (A549) | GI50 (U-251) | GI50 (SNB-75) | GI50 (UO-31) | GI50 (HCC 2998) | GI50 (NCI-H460) | GI50 (SN12C) | GI50 (UACC-257) | GI50 (CCRF-CEM) | GI50 (Malme-3M) | GI50 (OVCAR-4) | GI50 (OVCAR-5) | GI50 (SF-295) | GI50 (NCI-H226) |
| --- | --- | --- | --- | --- | --- | --- | --- | --- | --- | --- | --- | --- | --- | --- | --- | --- |
| CCC(C)C(N)C(=O)NC(CC(N)=O)C(=O)NC(CC(C)C)C(=O)NC(CCCCN)C(=O)NC(C)C(=O)NC(CC(C)C)C(=O)NC(C)C(=O)NC(C)C(=O)NC(CC(C)C)C(=O)NC(C)C(=O)NC(CCCCN)C(=O)NC(CCCCN)C(=O)NC(C(=O)NC(CC(C)C)C(N)=O)C(C)CC (stereo not given) | 14.1 µM (inactive) | 6.53 µM (inactive) | 9.93 µM (inactive) | 16.4 µM (inactive) | 6.56 µM (inactive) | 18.1 µM (inactive) | > 42.2 µM (inactive) | 9.82 µM (inactive) | 13.6 µM (inactive) | 14.2 µM (inactive) | 6.46 µM (inactive) | 5.98 µM (inactive) | 15.3 µM (inactive) | 14.6 µM (inactive) | 19.8 µM (inactive) | 14.5 µM (inactive) |
| COc1ccc(-c2cc(-c3cc(C)ccc3O)nc(O)n2)cc1 | 81.8 µM (inactive) |  | > 100 µM (inactive) | 30.7 µM (inactive) | 26.2 µM (inactive) | 76.6 µM (inactive) | > 100 µM (inactive) | > 100 µM (inactive) | > 100 µM (inactive) | > 100 µM (inactive) | > 100 µM (inactive) | > 100 µM (inactive) | > 100 µM (inactive) |  | 41 µM (inactive) | > 100 µM (inactive) |
| C[C@]12CCCC(=O)C1C[C@H](C(=O)O)CC2 (stereo not given in full) | > 100 µM (inactive) |  | > 100 µM (inactive) | > 100 µM (inactive) | > 100 µM (inactive) | > 100 µM (inactive) | > 100 µM (inactive) | > 100 µM (inactive) | > 100 µM (inactive) | > 100 µM (inactive) | > 100 µM (inactive) | > 100 µM (inactive) | > 100 µM (inactive) | > 100 µM (inactive) | > 100 µM (inactive) | > 100 µM (inactive) |
| COC(=O)C(CC(=O)Nc1ccc(C)cc1)C(=O)C(=O)Nc1ccccc1C(C)C (stereo not given) | > 100 µM (inactive) | > 100 µM (inactive) | > 100 µM (inactive) | > 100 µM (inactive) | > 100 µM (inactive) | > 100 µM (inactive) | > 100 µM (inactive) | > 100 µM (inactive) | > 100 µM (inactive) | > 100 µM (inactive) | > 100 µM (inactive) | > 100 µM (inactive) | > 100 µM (inactive) | > 100 µM (inactive) | > 100 µM (inactive) | > 100 µM (inactive) |
| CCOc1ccc(/C=C(\Cl)c2ccc(OC)cc2)cc1 | 78.7 µM (inactive) | > 100 µM (inactive) | > 100 µM (inactive) | > 100 µM (inactive) | > 100 µM (inactive) | > 100 µM (inactive) | > 100 µM (inactive) |  | > 100 µM (inactive) | > 100 µM (inactive) | > 100 µM (inactive) | > 100 µM (inactive) | > 100 µM (inactive) |  | > 100 µM (inactive) | > 100 µM (inactive) |
| CCC(C)(C)NS(=O)(=O)c1ccccc1 | > 100 µM (inactive) | > 100 µM (inactive) | > 100 µM (inactive) | > 100 µM (inactive) | > 100 µM (inactive) | > 100 µM (inactive) | > 100 µM (inactive) | > 100 µM (inactive) |  | > 100 µM (inactive) | > 100 µM (inactive) | > 100 µM (inactive) | > 100 µM (inactive) | > 100 µM (inactive) | > 100 µM (inactive) | > 10 µM (inactive) |
| COc1ccc(C[C@]23CCC(=O)N2CCc2cc(OC)c(O)cc23)cc1O | > 100 µM (inactive) | > 100 µM (inactive) | > 100 µM (inactive) |  | > 100 µM (inactive) | > 100 µM (inactive) | > 100 µM (inactive) | > 100 µM (inactive) | > 100 µM (inactive) | > 100 µM (inactive) | > 100 µM (inactive) | > 100 µM (inactive) | > 100 µM (inactive) | > 100 µM (inactive) | > 100 µM (inactive) | > 100 µM (inactive) |
| COc1ccc(NC(=O)C(=O)C2NC(=S)NC2=O)c(OC)c1 (stereo not given) | > 100 µM (inactive) |  | > 100 µM (inactive) | > 100 µM (inactive) | > 100 µM (inactive) | > 100 µM (inactive) | > 100 µM (inactive) | > 100 µM (inactive) | > 100 µM (inactive) | > 100 µM (inactive) | > 10 µM (inactive) | > 100 µM (inactive) | > 100 µM (inactive) |  | > 100 µM (inactive) | > 100 µM (inactive) |
| Clc1cc(Cc2cc(Cl)c(Cl)c3c2OCOC3)c2c(c1Cl)COCO2 | 45.5 µM (inactive) | 43.2 µM (inactive) | 40.9 µM (inactive) | 29.1 µM (inactive) | 27.5 µM (inactive) | 34.6 µM (inactive) | > 100 µM (inactive) | 43.8 µM (inactive) | 58.6 µM (inactive) | 94 µM (inactive) | 30.1 µM (inactive) | 40.6 µM (inactive) | 18.7 µM (inactive) | > 100 µM (inactive) | 26.2 µM (inactive) | 28.1 µM (inactive) |
| NC(=S)NNC(=O)/C(=C/c1ccc(/C=C(\NC(=O)c2ccccc2)C(=O)NNC(N)=S)cc1)NC(=O)c1ccccc1 | > 71.8 µM (inactive) | 66.2 µM (inactive) | > 100 µM (inactive) | 85.7 µM (inactive) | 30.4 µM (inactive) | > 100 µM (inactive) | > 100 µM (inactive) | > 100 µM (inactive) | > 79.6 µM (inactive) | > 100 µM (inactive) | 34.3 µM (inactive) | > 100 µM (inactive) | 97.5 µM (inactive) | > 100 µM (inactive) | > 100 µM (inactive) | > 100 µM (inactive) |
| COc1cc(Br)c(CC2=NCCc3cc(OC)c(OC)cc32)cc1OC | 8.89 µM (inactive) | 16.7 µM (inactive) | 21.1 µM (inactive) | 11.3 µM (inactive) | 36.3 µM (inactive) | 11.3 µM (inactive) | 16.4 µM (inactive) | 2.35 µM (inactive) | 15.3 µM (inactive) | 16.6 µM (inactive) | 19.7 µM (inactive) | 25.9 µM (inactive) | 28.9 µM (inactive) | 3.88 µM (inactive) | 0.7 µM (active) | 11 µM (inactive) |
| CN(C)C(=S)/N=c1\ss/c(=N/c2ccccc2)n1C | 77.1 µM (inactive) |  | 59.2 µM (inactive) | 46.7 µM (inactive) | 16.2 µM (inactive) | > 100 µM (inactive) | > 100 µM (inactive) | > 100 µM (inactive) | > 100 µM (inactive) | > 100 µM (inactive) | > 100 µM (inactive) | 40.5 µM (inactive) | 50.6 µM (inactive) | > 100 µM (inactive) | 75.9 µM (inactive) | > 100 µM (inactive) |
| O=[N+]([O-])c1ccc(OCCNc2cccc3ccccc23)cc1 | 52.8 µM (inactive) | 30.5 µM (inactive) | 60.1 µM (inactive) | 94.6 µM (inactive) | 89.7 µM (inactive) | 92.9 µM (inactive) | 64.6 µM (inactive) | 77.6 µM (inactive) | > 100 µM (inactive) | > 100 µM (inactive) | 38.2 µM (inactive) | > 100 µM (inactive) | > 100 µM (inactive) | > 100 µM (inactive) | > 100 µM (inactive) | > 100 µM (inactive) |
| O=C(Nc1nc2ccccc2n1Cc1ccc(Cl)cc1)NC12CC3CC(CC(C3)C1)C2 | 24.3 µM (inactive) | 33.3 µM (inactive) | 21.1 µM (inactive) | 20.7 µM (inactive) | 7.74 µM (inactive) | 48 µM (inactive) | > 100 µM (inactive) | 20.1 µM (inactive) | 28.4 µM (inactive) | 28.2 µM (inactive) | 76.7 µM (inactive) | 19.1 µM (inactive) | 8.99 µM (inactive) | 91.2 µM (inactive) | 10.9 µM (inactive) | 24 µM (inactive) |
| CSC1(C)CC2C(CC1N1CCOCC1)C2(C)C (stereo not given) | > 100 µM (inactive) | > 100 µM (inactive) | > 100 µM (inactive) | > 100 µM (inactive) | > 100 µM (inactive) | > 100 µM (inactive) | > 100 µM (inactive) | > 100 µM (inactive) | > 100 µM (inactive) | > 100 µM (inactive) | > 100 µM (inactive) | > 100 µM (inactive) | > 100 µM (inactive) | > 100 µM (inactive) | > 100 µM (inactive) | > 100 µM (inactive) |
| CC(C)CCC[C@@H](C)C1CCC2[C@@H]3CC=C4C[C@@H](C(=O)NCCN(C)C)CC[C@]4(C)C3CC[C@@]21C (stereo not given in full) | 14.8 µM (inactive) | > 10 µM (inactive) | 23.1 µM (inactive) | 30 µM (inactive) | 20.4 µM (inactive) | 23.1 µM (inactive) | 23.5 µM (inactive) | 32.9 µM (inactive) | 19.4 µM (inactive) | 22.4 µM (inactive) | 23.8 µM (inactive) | 28.9 µM (inactive) | 30.4 µM (inactive) | > 100 µM (inactive) | 44.4 µM (inactive) | 19.9 µM (inactive) |
| CC(=O)OC1CC2C(C)(C)C(=O)C=C[C@]2(C)C2CCC3(C)C(c4ccoc4)C(=O)[C@H]4O[C@]43[C@]12C (stereo not given in full) | > 100 µM (inactive) | 17.7 µM (inactive) | > 10 µM (inactive) | 18.6 µM (inactive) | 29.8 µM (inactive) | 18.7 µM (inactive) | 17.1 µM (inactive) | 17.4 µM (inactive) | 23.3 µM (inactive) |  | 15.5 µM (inactive) | 16.1 µM (inactive) | 22.3 µM (inactive) | 26.7 µM (inactive) |  | 23.7 µM (inactive) |
